These results are taken from patent US12421235B2, “Bridged tricyclic carbamoylpyridone compounds and uses thereof” (Gilead Sciences, Inc., priority 2020, dated 2025).

A short description of data set [1]: High throughput microsomal stability assay (human liver microsomes). It counts as in vitro ADME. The conditions noted are these: human liver microsomes, 1 uM compound, NADPH + UDPGA cofactors, 37 C. As to the method:
Example 49: High Throughput Microsomal Stability Assay
Metabolic stability of compounds was assessed using Human, or Rat Liver Microsomal assays (Corning). In this assay, 10 nL compounds at concentration of 1 mM in 100% DMSO were dispensed into 384-well polypropylene plates using the Echo 550 acoustic liquid dispenser (Labcyte®). Each plate contained 384 wells with a single test compound in each well.
A solution of human (Corning® Gentest™ Human Mixed Pooled Microsomes), or rat (Corning® Gentest™ Rat [Sprague-Dawley] Pooled Liver Microsomes) liver microsomes at 2 mg/ml in 100 mM K2HPO4/KH2PO4 pH 7.4 with Alamethicin from Trichoderma viride (Sigma-Aldrich) 0.0225 mg/ml were incubated on ice for 15 minutes. 5 uL of this solution was added to individual wells following 15 minute incubation at room temperature; and supplemented with 5 uL NADPH Regenerating Solution of cofactors (Corning® Gentest™ UGT Reaction Mix) containing 100 mM K2HPO4/KH2PO4 pH 7.4, 2.6 mM NADP+, 6.6 mM glucose-6-phosphate, 6.6 mM MgCl2, 0.8 U/mL glucose-6-phosphate dehydrogenase, 0.1 mM Sodium Citrate, 6.8 mM uridine diphosphate-glucuronic acid. Final concentration of analyte compounds at the beginning of the reaction was 1 uM. The reactions were incubated at 37° C. and time points of 0, 5, 15, 30, 40, 50, 60, and 70 minutes were collected for further analysis. Background data were collected using reactions without analyte compounds.
Upon collection of the reaction time points, samples were quenched with 30 uL of a solution of 72% acetonitrile, 8% methanol, 0.1% formic acid, 19.9% water, and internal standard (IS). Reaction plates were span in a centrifuge at speed of 4,000 rcf for 30 minutes and 4° C., following a dilution of the 10 uL quenched reaction into 40 uL de-ionized water, yielding assay plates.
Assay plates were analyzed using solid-state extraction coupled with quadrupole time-of-flight mass spectrometer, using Agilent QToF 6530 RapidFire 360 system, with C4 type A solid state cartridges. Analysis was performed in either positive or negative ionization modes. Mobile phases contained 0.1% formic acid in water for loading analytes onto solid state extraction cartridges, and 0.1% formic acid in acetonitrile for elution into mass spectrometer in positive ionization mode, or 0.1% acetic acid in water for loading and 0.1% acetic acid in acetonitrile for extraction in negative ionization mode. Peak-area ratios of integrated counts for individual compounds to IS were plotted as semi-logarithmic chart of log vs time. Initial, linear portion of decay was fitted to a linear regression equation to derive half time of a compound decay.
Pharmacological parameters for an analyte compound metabolism were calculated using the following equations: […]
Where. Calculation of In Vitro Intrinsic Clearance
Concentration refers to the protein concentration (mg/mL) in the reaction.
Calculation of In Vivo Intrinsic Clearance
This scales the in vitro intrinsic clearance up to the value that would be predicted for the entire mass of liver tissue (but with no restriction by blood flow). The value depends upon the size of the liver (species-dependent) and the yield of microsomal protein as appropriate (assumed to be species-independent).
Calculation of Predicted Clearance
Hepatic clearance will depend upon the inter-relationship of intrinsic clearance and hepatic blood flow and can be predicted from in vitro data using a variety of approaches.
Calculation of Hepatic Extraction
This is simply the predicted clearance expressed as a proportion of hepatic blood flow. E=CL/QH*100%
Intrinsic clearance of the instant compounds, as well as for reference compounds A-F, were calculated following the procedure above.
Background: Liver microsomes are a subcellular fraction often used to study metabolism.

Data set [2] relates to HIV-1 (IIIB) in MT-4 cells. Briefly: HIV MT-4 antiviral assay. The conditions noted are these: Human immunodeficiency virus 1, MT4, 120 h, 5 days, Cell Titer Glo. It counts as cell-based. As for the experimental part: Example 47: HIV MT-4 Antiviral and Cytotoxicity Assay
Antiviral Assay in MT-4 Cells
(§1) Compounds were tested in a high-throughput 384-well assay format for their ability to inhibit the replication of HIV-1 (IIIB) in MT-4 cells. Compounds were serially diluted (1:3) in DMSO on 384-well polypropylene plates and further diluted 200-fold into complete RPMI media (10% FBS, 1% P/S) using the Biotek Micro Flow and Labcyte ECHO acoustic dispenser. Each plate contained up to 8 test compounds, with negative (No Drug Control) and 5 μM AZT positive controls. MT-4 cells were pre-infected with 10 μL of either RPMI (mock-infected) or a fresh 1:250 dilution of HIV-1 IIIB concentrated virus stock. Infected and uninfected MT-4 cells were further diluted in complete RPMI media and added to each plate using a Micro Flow dispenser. After 5 days incubation in a humidified and temperature controlled incubator (37° C.), Cell Titer Glo (Promega) was added to the assay plates and chemiluminescence read using an Envision plate-reader. EC50 values were defined as the compound concentration that causes a 50% decrease in luminescence signal, and were calculated using a sigmoidal dose-response model to generate curve fits.
Background: ATP-based viability assays read luminescence as a measure of living cells.

Data set [3] can be described thus: Cytotoxicity assay in MT-4 cells. It is filed as cell-based. The settings on record: human, uninfected MT-4 cells, Cell Titer Glo. As for the experimental part: as §1, with “fits. Cytotoxicity Assay in MT-4 Cells Assays were performed as above except uninfected MT-4 cells were added to each well containing test compound. In addition, 10 μM puromycin was added to the last column of each assay plate to assess a base level of cytotoxicity.” for “fits.”

Data set [4] has as its system pLai RLuc reporter virus in MT-4 cells. Briefly: HIV MT-4 serum shift antiviral reporter assay. It counts as cell-based. The conditions noted are these: Human immunodeficiency virus 1, MT4, 72 h, read-out: RLUC CCM. As to the method: Example 48: HIV MT-4 Serum Shift Antiviral Reporter Assay
To quantify the amount of protein binding to human serum, compounds were serially diluted (1:3) in DMSO and acoustically transferred onto 384-well assay plates via a Labcyte ECHO robot. Each plate contained up to 8 test compounds, including negative and positive controls, (DMSO, 5 μM AZT respectively). Assay plates were prepared in duplicate, and tested in either CCM (cell culture media) or HS/CCM (human serum/cell culture media). MT-4 cells were first pre-infected with pLai RLuc reporter virus for 2 h at 37° C., then further diluted in either CCM (RPMI media, 10% FBS, 1% P/S) or HS/CCM (RPMI media, 10% FBS, 50% HS, 1% P/S), and subsequently added to each plate using a Biotek Micro Flow dispenser. After a 72-h incubation in a humidified and temperature controlled incubator (37° C.), Renilla Glo (Promega) was added to all assay plates and chemiluminescence read using an Envision plate-reader. EC50 values were defined as the compound concentration that causes a 50% decrease in luminescence signal, and were calculated using a sigmoidal dose-response model to generate curve fits. To determine the amount of protein binding, EC50 fold shifts (or EC50 shifts) were calculated by dividing EC50 (HS/CCM)/EC50 (CCM). […]
(A reporter such as luciferase makes a cellular process visible.)

For the compound `C[C@H]1[C@H]2CO[C@H](C2)[C@H]2CN1C(=O)c1c(O)c(=O)c(C(=O)NCc3ccc(F)cc3F)cn12` [Example 45, (3S,4S,7R,8R)—N-(2,4-difluorobenzyl)-13-hydroxy-3-methyl-1,12-dioxo-1,4,5,7,8,12-hexahydro-3H-2,8:4,7-dimethanopyrido[1,2-d][1,4,7]oxadiazecine-11-carboxamide], the HLM stability in data set [1] worked out at 0.17 L/h/kg. Besides, the EC50 in data set [2] stood at 1.9 nM; in data set [4] it was 0.46 nM. Further, the midpoint of cytotoxicity in data set [3], the CC50 at 5 days, lay at 12.4 µM.
With `C[C@H]1CC[C@@H](O)[C@H]2CN1C(=O)c1c(O)c(=O)c(C(=O)NCc3c(F)cc(F)cc3F)cn12` [Example 5, (3S,6R,7R)-6,12-dihydroxy-3-methyl-1,11-dioxo-N-(2,4,6-trifluorobenzyl)-1,4,5,6,7,11-hexahydro-3H-2,7-methanopyrido[1,2-a][1,4]diazonine-10-carboxamide], the HLM stability in data set [1] is 0.20 L/h/kg. Moreover, the values for the EC50 in data set [2] and in data set [4] were 1.8 nM and 0.71 nM, respectively. Moreover, in data set [3], the half-maximal cytotoxic concentration (CC50) (commonly the concentration that lowers cell viability or growth by half) at 5 days came out at 50 µM.
As for `CO[C@@H]1CC(F)(F)[C@H](C)N2C[C@H]1n1cc(C(=O)NCc3c(F)cc(F)cc3F)c(=O)c(O)c1C2=O` (single isomer, unassigned) [Example 36], in data set [1], the HLM stability was 0.2 L/h/kg. Moreover, the EC50 in data set [2] was 2.6 nM; in data set [4], 0.33 nM. The compound also displayed a CC50 at 5 days in data set [3] of 27.3 µM.
In the case of `CO[C@H]1CC[C@H](CF)N2C[C@H]1n1cc(C(=O)NCc3ccc(F)cc3F)c(=O)c(O)c1C2=O` [Example 41, (3R,6S,7R)—N-(2,4-difluorobenzyl)-3-(fluoromethyl)-12-hydroxy-6-methoxy-1,11-dioxo-1,4,5,6,7,11-hexahydro-3H-2,7-methanopyrido[1,2-a][1,4]diazonine-10-carboxamide], the HLM stability in data set [1] is 0.11 L/h/kg. Moreover, the EC50 is 1.7 nM in data set [2] and 0.56 nM in data set [4]. Also, the CC50 at 5 days in data set [3] came to 19.4 µM.
In the same order, the values of `CO[C@@]1(C)CC[C@H](C)N2C[C@H]1n1cc(C(=O)NCc3c(F)cc(F)cc3F)c(=O)c(O)c1C2=O` [Example 23, (3S,6S,7R)-12-hydroxy-6-methoxy-3,6-dimethyl-1,11-dioxo-N-(2,4,6-trifluorobenzyl)-1,4,5,6,7,11-hexahydro-3H-2,7-methanopyrido[1,2-a][1,4]diazonine-10-carboxamide] are 0.7 L/h/kg, 2.2 nM, 0.47 nM and 9.79 µM.
The corresponding values for `C[C@H]1C=C[C@](C)(O)[C@H]2CN1C(=O)c1c(O)c(=O)c(C(=O)NCc3c(F)cc(F)cc3F)cn12` [Example 15, (1R,10S,13S)-6,13-dihydroxy-10,13-dimethyl-5,8-dioxo-N-[(2,4,6-trifluorophenyl)methyl]-2,9-diazatricyclo[7.4.1.02,7]tetradeca-3,6,11-triene-4-carboxamide] are 0.19 L/h/kg, 7.9 nM, 1.64 nM and 28.4 µM.
Take `CO[C@H]1C[C@H](F)[C@H](C)N2C[C@H]1n1cc(C(=O)NCc3c(F)cc(F)cc3F)c(=O)c(O)c1C2=O` [Example 40, (3S,4S,6S,7R)-4-fluoro-12-hydroxy-6-methoxy-3-methyl-1,11-dioxo-N-(2,4,6-trifluorobenzyl)-1,4,5,6,7,11-hexahydro-3H-2,7-methanopyrido[1,2-a][1,4]diazonine-10-carboxamide]: in data set [1], the HLM stability came out at 0.28 L/h/kg. For the same compound, the EC50 in data set [2] amounted to 1.1 nM; in data set [4], 2.87 nM. Also, it took 19.6 µM to reach half-maximal cytotoxicity in data set [3] (CC50 at 5 days).
In the same order, the values of `[2H]C([2H])([2H])[C@]1(O)CC[C@H](C)N2C[C@H]1n1cc(C(=O)NCc3ccc(F)cc3F)c(=O)c(O)c1C2=O` [Example 31, (1R,10S,13S)—N-[(2,4-difluorophenyl)methyl]-6,13-dihydroxy-10-methyl-5,8-dioxo-13-(trideuteriomethyl)-2,9-diazatricyclo[7.4.1.02,7]tetradeca-3,6-diene-4-carboxamide] are 0.18 L/h/kg, 2.1 nM, 0.36 nM and 8.23 µM.
In the case of `CO[C@H]1C[C@@H](F)[C@H](C)N2C[C@H]1n1cc(C(=O)NCc3c(F)cc(F)cc3F)c(=O)c(O)c1C2=O` [Example 39, (3S,4R,6S,7R)-4-fluoro-12-hydroxy-6-methoxy-3-methyl-1,11-dioxo-N-(2,4,6-trifluorobenzyl)-1,4,5,6,7,11-hexahydro-3H-2,7-methanopyrido[1,2-a][1,4]diazonine-10-carboxamide], in data set [1], the HLM stability turned out to be 0.28 L/h/kg. For the same compound, the EC50 in data set [2] and in data set [4] was 1.5 nM each time. The compound further displayed a CC50 at 5 days in data set [3] of 11.7 µM.
